Data from patent US20260049078A1, “DIFLUORO- AND TRIFLUORO-ACETYL HYDRAZIDES AS SELECTIVE HDAC6 INHIBITORS” (ITALFARMACO S.P.A., priority 2022, published 2026).
Blank lines part the entries; values can stand above or below the molecule they belong to.

Columns and labels:
zHDAC6-CD2 wt = zHDAC6-CD2 wt (Danio rerio (Zebrafish) (Brachydanio rerio), UniProt F8W4B7); test: Isolation of long-lived/tight complex (spin column chromatography with LC-HRMS); assay type: binding; settings: zHDAC6-CD2 wt 1 μM, compound 5 μM, 6 hours, Bio-Spin P-6
Sequence of zHDAC6-CD2 wt (F8W4B7 entry or part of it del 1-439/del 799-1081 limits assumed): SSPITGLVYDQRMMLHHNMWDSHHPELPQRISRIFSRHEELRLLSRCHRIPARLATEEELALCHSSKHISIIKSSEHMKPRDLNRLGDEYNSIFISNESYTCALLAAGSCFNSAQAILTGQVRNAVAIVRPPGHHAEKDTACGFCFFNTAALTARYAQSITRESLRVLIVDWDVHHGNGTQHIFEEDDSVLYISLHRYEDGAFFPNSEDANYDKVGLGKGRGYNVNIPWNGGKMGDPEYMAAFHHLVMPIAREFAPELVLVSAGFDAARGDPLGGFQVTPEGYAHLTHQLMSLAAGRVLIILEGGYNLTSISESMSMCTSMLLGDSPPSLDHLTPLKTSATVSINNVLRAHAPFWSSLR
Experimental: Rapid chromatography on spin columns coupled to LC-HRMS was used to attempt the isolation of long-lived/tight complexes between HDAC6 and examples 1 and 1-A. zHDAC6-CD2 wt (1 μM) was incubated with 1 (5 μM) or 1-A (also 5 μM) as described before for 6 hours. An aliquot (60 μL) was loaded on a Bio-Spin P-6 Gel Column (Bio-Rad) that had been equilibrated with assay buffer in order to separate the HDAC6-inhibitors complexes from free compounds. After centrifugation to elute the initial fraction containing most of the enzyme, ten 200 μL aliquots were applied and eluted by centrifugation to collect the low molecular weight (free) compounds. Aliquots of the fractions were subjected to LC-HRMS analysis (as described above) for identification and quantitation of 1 and its derivatives.

HDAC6 = test: Kinetic of prodrug disappearing when incubated with HDAC6 (LC-HRMS); assay type: biochemical; settings: HDAC6 1 μM, 5 μM compound, 25° C.; for half-life at 5 µM: HDAC6 enzyme in assay buffer, read-out: T1/2 of prodrug disappearing
Experimental: The LC-HRMS analysis was carried out using a Vanquish Flex UHPLC (Thermo Fisher Scientific) and a high-resolution mass spectrometer Orbitrap QExactive Focus (Thermo Fisher Scientific), equipped with a Heated Electrospray Ionization, operated in positive mode. A Full Scan analysis was set in the m/z range 50-500 amu. A XSelect HSS T3 50×2.1 mm, 2.5 μm chromatographic column (Waters) was used. Mobile phase A consisted of 0.1% formic acid in water and mobile phase B in 0.1% formic acid in acetonitrile. The flow rate was set to 0.5 mL/min, with a gradient program from 3 to 20% B in 3 minutes.

[1] = tested on: murine neuroblastoma N2a cell lines; test: In vitro α-tubulin acetylation in N2a cell line; assay type: cell-based; settings: N2a cells, 16 hours; dose of the tabulated value not stated (tested at 10 μM, 1 μM and 0.1 μM)
Experimental: The in vitro α-tubulin acetylation was evaluated on murine neuroblastoma N2a cell lines.
Cells were maintained in Eagle's Minimum Essential Medium (ATCC, cat: 30-2003) supplemented with 10% fetal bovine serum—FBS (Gibco, cat: 10270-106).
Cells were plated in 12-well plates (Costar, cat: 3512) at the density of 6×10^4 cells/cm^2, respectively. The test compounds were prepared as 20× concentrated medium solutions in respect to the final concentrations. The cells were treated the following day. The compounds were tested at 3 doses: 10 μM, 1 μM and 0.1 μM. The final DMSO content was set as 0.5%. The cells were incubated with the compounds at 37° C. for 16 hours.
At the end of the incubation period, the cells were harvested and centrifuged for 5 minutes at 200×g and washed with 0.9% NaCl at 4° C. The resulting pellet was treated for 30 minutes at 4° C. with 100 μl Complete Lysis-M buffer containing protease inhibitors (Complete Lysis-M Roche+Complete Tablets, Mini Easypack, cat: 4719956001) and phosphatase inhibitor cocktails (PhosStop Easypack, Roche, cat: 4906837001) and then centrifuged 10 minutes at 18213×g. The protein concentration in each supernatant was determined using BCA Protein Assay Kit (Pierce, cat: 23227). The samples were diluted in PBS 1× to obtain 2 μg/ml concentration and coated in MaxiSorp 96-well plates (Nunc, cat: 442404). The plates were incubated overnight at room temperature, then washed twice with Wash Buffer (PBS 1×+0.005% tween 20) and saturated for 1 hour at room temperature with 300 μL of 1×PBS containing 10% FBS. After washing twice with Wash Buffer, the plates were incubated for 2 hours at room temperature in the presence of 100 μl/well either anti-acetylated-α-tubulin antibody (Monoclonal Anti-Tubulin, Acetylated antibody produced in mouse, Sigma-Aldrich, cat: T6793) or total anti-α-tubulin antibody (Monoclonal Anti-α-Tubulin produced in mouse, Sigma-Aldrich, cat: T6074) diluted 1:1000 in 1×PBS containing 10% FBS. Following 5 washing cycles with Wash Buffer, the secondary antibody conjugated with the enzyme HRP (Goat anti-Mouse IgG, IgM, IgA (H+L), stock concentration 0.5 mg/ml, Thermo Fisher Scientific, cat: A10668), diluted 1:1000 in 1×PBS+10% FBS was added at the volume of 100 μl/well. After two hours of incubation at room temperature the plates were washed 4 times with Wash Buffer, then 100 μl/well of TMB substrate (TMB substrate kit, Thermo Fisher Scientific, cat: 34021) was added for 15 minutes at room temperature in the dark. The reaction was stopped by adding 50 μl of 2M H2SO4. The plates were read in BioTek Synergy H1 multimode microplate reader at a wavelength of 450 nm.
The measured absorbance was corrected by subtracting the mean of blank values (samples without the primary antibody). The absorbance ratios of acetyl to total tubulin assays were calculated and normalized to the reference compound (positive control) 4 parameter logistic curve, where 100% is the fitted top of the curve and 0% is DMSO control (protein extract obtained from non-treated cells). The results are expressed as fold increase compared to the control (DMSO).

co-elution with the enzyme (fraction 1) (zHDAC6-CD2 wt): behaves as a prodrug
Structure (SMILES): FC(F)c1nnc(-c2ccc(Cn3cc(-c4ccc(NC5=NCCN5)cc4)nn3)cc2)o1 [Compound 1-A]

half-life at 5 µM (HDAC6): 1.29 h
Structure (SMILES): Nc1nc2ccc(-c3cn(Cc4ccc(-c5nnc(C(F)F)o5)cc4F)nn3)cc2s1 [Compound 2-A]
percentage of compound concentration (prodrug remaining) (HDAC6; time 0 min): 100.00%
percentage of compound concentration (prodrug remaining) (HDAC6; time 30 min): 73.1%
percentage of compound concentration (prodrug remaining) (HDAC6; time 60 min): 53.6%
percentage of compound concentration (prodrug remaining) (HDAC6; time 120 min): 31.1%
percentage of compound concentration (prodrug remaining) (HDAC6; time 240 min): 11.1%
percentage of compound concentration (prodrug remaining) (HDAC6; time 360 min): 3.9%
percentage of compound concentration (prodrug remaining) (HDAC6; time 480 min): 1.3%

Structure (SMILES): FC(F)c1nnc(-c2ccc(Cn3cc(-c4ccccc4)nn3)nc2)o1 [Compound 13-A]
Tubulin acetylation Fold increase compared to control [1]: 6 fold

Structure (SMILES): Fc1ccccc1-c1cn(Cc2ccc(-c3nnc(C(F)F)o3)cn2)nn1 [Compound 14-A]
Tubulin acetylation Fold increase compared to control [1]: 7 fold

Structure (SMILES): FC(F)c1nnc(-c2ccc(Cn3cc(-c4ccccn4)nn3)nc2)o1 [Compound 20-A]
Tubulin acetylation Fold increase compared to control [1]: 15 fold

Structure (SMILES): Nc1nc2ccc(-c3cn(Cc4ccc(-c5nnc(C(F)F)o5)cc4)nn3)cc2s1 [Compound 32-A]
Tubulin acetylation Fold increase compared to control [1]: 20 fold

half-life at 5 µM (HDAC6): 1.24 h
Structure (SMILES): Nc1nc2ccc(-c3cn(Cc4ccc(-c5nnc(C(F)F)o5)cc4Cl)nn3)cc2s1 [Compound 37-A]
Tubulin acetylation Fold increase compared to control [1]: 31 fold
percentage of compound concentration (prodrug remaining) (HDAC6; time 0 min): 100.00%
percentage of compound concentration (prodrug remaining) (HDAC6; time 30 min): 88.1%
percentage of compound concentration (prodrug remaining) (HDAC6; time 60 min): 69.2%
percentage of compound concentration (prodrug remaining) (HDAC6; time 120 min): 38.4%
percentage of compound concentration (prodrug remaining) (HDAC6; time 240 min): 12.1%
percentage of compound concentration (prodrug remaining) (HDAC6; time 360 min): 3.7%
percentage of compound concentration (prodrug remaining) (HDAC6; time 480 min): 1.3%

Structure (SMILES): Nc1nc2ccc(-c3cn(Cc4ccc(-c5nnc(C(F)F)o5)cn4)nn3)cc2s1 [Compound 38-A]
Tubulin acetylation Fold increase compared to control [1]: 22 fold

Structure (SMILES): Nc1nc2ccc(C3CN(Cc4ccc(C(=O)NNC(=O)C(F)F)s4)N=N3)cc2s1 (stereo not drawn) [Compound 48-A]
Tubulin acetylation Fold increase compared to control [1]: 45 fold
